Experimental data from patent US10959938B2, “Combination of (3S,3S′) 4,4′-disulfanediylbis(3-aminobutane 1-sulfonic acid) and a second antihypertensive agent” (QUANTUM GENOMICS, priority 2011, dated 2021).

System: spontaneously hypertensive rats (SHR)
Assay: Mean arterial blood pressure (MABP) and heart rate recording in conscious, unrestrained SHR after acute oral administration
Type: in vivo, rat
Conditions: 1 hour (FIG. 2)
Procedure: RB150, the ACEI, enalapril (supplied from Merck Sharp and Dohme research Lab), and the ARB, valsartan (Sigma-Aldrich), were dissolved in sterile saline and adjusted to pH 7.4 for in vivo administration.
Male spontaneously hypertensive rats (SHR), weighing 250 to 350 g, were obtained from Charles River Laboratories (L'Arbresle, France) and animals were kept under artificial light (12-hours light/12-hours dark cycle) with a normal standard diet and water given ad libitum. The experiments were conducted according to the National Institutes of Health Guide for the Care and Use of Laboratory Animals.
Twelve weeks male SHR were anesthetized with pentobarbital sodium (60 mg/kg, i.p, Centravet). Catheters were implanted in the femoral artery. The femoral arterial catheter was brought under the skin and emerged at the nape of the neck. After surgery, each rat was given an intraperitoneal injection of 0.1 mL of penicillin-streptomycin (50,000 units/mL; Sigma) and allowed to recover for at least 24 hours before the experiment. […] Each experiment was monitored by using a COBE CDX III pressure transducer (Phymep, Paris, France) connected to the MacLab system (Phymep) consisting of a MacLab hardware unit and chart software running on a Macintosh computer. […]

SMILES | BP decrease 1 hour after drug administration (RB150 alone 150 mg/kg po) | BP decrease 1 hour after drug administration (enalapril alone 3 mg/kg po)
N[C@@H](CCS(=O)(=O)O)CSSC[C@@H](N)CCS(=O)(=O)O [RB150, (3S,3S′) 4,4′-disulfanediylbis(3-aminobutane 1-sulfonic acid)] | did not induce any significant BP decrease | –
CCOC(=O)[C@H](CCc1ccccc1)N[C@@H](C)C(=O)N1CCC[C@H]1C(=O)O [enalapril] | – | did not induce any significant BP decrease
